Columns and labels:
Format in all cases: cell-based
Phospho-Rb (Ser807/811) = experiment: Phospho-Retinoblastoma (pRB) Cellular Assay; conditions: Homo sapiens, OVCAR-3, NIH OVCAR3 cells, 24 hours; for IC50: concentration giving 50% response; for Emax: maximum response, reference compound at 10 μM = 100%, read-out: pRB Ymax
Procedure, shortened: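 OVCAR3 cells seeded overnight, then dosed with serial dilutions for 24 h at 37° C. Lysed with kit mix plus phosphatase inhibitor, ≥4 h at room temperature, read on EnVision; 100% response set by reference compound at 10 μM, giving IC50 and Ymax.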

GSPT1 = GSPT1 (Homo sapiens, UniProt P15170+Q96SW2); experiment: GSPT1 Cellular Degradation Assay (DF15-GSPT1-ePL); set-up: expressed in transfected cells; conditions: DF15-GSPT1-ePL cells, 20 hours
Sequence of GSPT1 (P15170 whole entry, the tested form may be a part): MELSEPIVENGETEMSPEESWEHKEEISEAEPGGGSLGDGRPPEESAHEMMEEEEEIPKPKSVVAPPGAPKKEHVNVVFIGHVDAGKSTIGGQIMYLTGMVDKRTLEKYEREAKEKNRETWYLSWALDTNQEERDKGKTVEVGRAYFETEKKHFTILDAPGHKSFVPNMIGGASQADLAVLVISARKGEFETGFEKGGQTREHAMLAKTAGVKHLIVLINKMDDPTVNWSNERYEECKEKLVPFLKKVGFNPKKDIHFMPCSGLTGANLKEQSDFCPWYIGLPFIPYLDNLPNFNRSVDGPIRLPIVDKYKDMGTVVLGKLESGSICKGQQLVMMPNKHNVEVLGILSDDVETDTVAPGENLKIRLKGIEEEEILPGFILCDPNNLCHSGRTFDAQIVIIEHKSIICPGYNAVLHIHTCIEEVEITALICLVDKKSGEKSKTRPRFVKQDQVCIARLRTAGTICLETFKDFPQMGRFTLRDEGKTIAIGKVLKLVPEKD
Sequence of GSPT1 (Q96SW2 whole entry, the tested form may be a part): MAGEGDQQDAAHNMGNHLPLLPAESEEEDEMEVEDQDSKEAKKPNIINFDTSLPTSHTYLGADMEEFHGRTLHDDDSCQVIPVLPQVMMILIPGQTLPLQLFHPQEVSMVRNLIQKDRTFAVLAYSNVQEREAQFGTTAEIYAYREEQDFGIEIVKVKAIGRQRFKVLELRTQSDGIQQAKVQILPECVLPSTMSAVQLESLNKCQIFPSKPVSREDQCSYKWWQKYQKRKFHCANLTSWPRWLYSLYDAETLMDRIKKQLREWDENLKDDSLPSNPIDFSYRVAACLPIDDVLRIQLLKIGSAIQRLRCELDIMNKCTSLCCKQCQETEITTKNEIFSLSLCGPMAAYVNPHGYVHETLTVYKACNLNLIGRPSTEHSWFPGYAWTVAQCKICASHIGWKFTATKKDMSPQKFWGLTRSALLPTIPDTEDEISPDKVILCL
Sequence of GSPT1 (Q16531 whole entry partner, the tested form may be a part): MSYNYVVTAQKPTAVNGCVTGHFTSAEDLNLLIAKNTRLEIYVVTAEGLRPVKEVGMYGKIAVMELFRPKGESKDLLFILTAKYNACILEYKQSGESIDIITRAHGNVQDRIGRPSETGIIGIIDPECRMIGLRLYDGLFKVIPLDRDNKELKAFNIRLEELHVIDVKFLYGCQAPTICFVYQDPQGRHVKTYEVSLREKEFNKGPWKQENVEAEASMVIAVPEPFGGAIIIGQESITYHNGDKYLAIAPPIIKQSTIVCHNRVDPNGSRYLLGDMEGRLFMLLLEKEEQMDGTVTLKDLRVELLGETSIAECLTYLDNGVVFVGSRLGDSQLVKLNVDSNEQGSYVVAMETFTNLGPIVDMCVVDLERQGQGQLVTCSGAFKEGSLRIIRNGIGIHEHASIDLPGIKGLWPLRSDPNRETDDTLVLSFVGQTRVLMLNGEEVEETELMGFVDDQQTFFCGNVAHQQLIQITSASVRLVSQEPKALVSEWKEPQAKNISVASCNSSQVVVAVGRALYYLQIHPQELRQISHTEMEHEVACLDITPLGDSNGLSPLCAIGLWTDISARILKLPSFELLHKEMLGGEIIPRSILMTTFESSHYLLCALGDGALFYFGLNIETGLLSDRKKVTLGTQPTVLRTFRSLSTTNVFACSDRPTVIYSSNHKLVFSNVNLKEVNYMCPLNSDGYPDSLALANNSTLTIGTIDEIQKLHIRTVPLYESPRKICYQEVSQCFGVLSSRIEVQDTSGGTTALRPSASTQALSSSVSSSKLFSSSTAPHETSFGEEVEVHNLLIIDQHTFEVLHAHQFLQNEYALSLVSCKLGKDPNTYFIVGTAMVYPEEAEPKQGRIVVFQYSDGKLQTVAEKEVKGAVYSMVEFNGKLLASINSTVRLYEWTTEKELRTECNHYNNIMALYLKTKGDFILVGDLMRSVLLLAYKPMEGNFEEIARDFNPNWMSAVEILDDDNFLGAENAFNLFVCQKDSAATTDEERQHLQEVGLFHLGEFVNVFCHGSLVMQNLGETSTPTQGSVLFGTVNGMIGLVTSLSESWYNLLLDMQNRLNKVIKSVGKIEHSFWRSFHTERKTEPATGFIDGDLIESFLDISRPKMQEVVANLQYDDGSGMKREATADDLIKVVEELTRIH
Procedure, shortened: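 Human DF15 cells co-expressing a GSPT1–ePL fusion were treated with compound in RPMI 1640/10% FBS for 20 h at 37 °C. GSPT1 level was read by enzyme-fragment-complementation luminescence after 60 min with detection reagent. The reference degrader at […] defined 75% response; DC50 and Dmax were reported.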

Cyclin E1 = Cyclin E1 (Homo sapiens, UniProt P24864+Q96SW2); experiment: Cyclin E1 Cellular Degradation Assay (MSD); set-up: endogenous in cells; host or cells: OVCAR3; conditions: for DC50 / Dmax: Cyclin E1 cellular degradation; for Dmax: maximum degradation; for Ratio of GSPT1 DC50/Cyclin E1 DC50: selectivity for degradation of Cyclin E1 over GSPT1
Sequence of Cyclin E1 (P24864 whole entry): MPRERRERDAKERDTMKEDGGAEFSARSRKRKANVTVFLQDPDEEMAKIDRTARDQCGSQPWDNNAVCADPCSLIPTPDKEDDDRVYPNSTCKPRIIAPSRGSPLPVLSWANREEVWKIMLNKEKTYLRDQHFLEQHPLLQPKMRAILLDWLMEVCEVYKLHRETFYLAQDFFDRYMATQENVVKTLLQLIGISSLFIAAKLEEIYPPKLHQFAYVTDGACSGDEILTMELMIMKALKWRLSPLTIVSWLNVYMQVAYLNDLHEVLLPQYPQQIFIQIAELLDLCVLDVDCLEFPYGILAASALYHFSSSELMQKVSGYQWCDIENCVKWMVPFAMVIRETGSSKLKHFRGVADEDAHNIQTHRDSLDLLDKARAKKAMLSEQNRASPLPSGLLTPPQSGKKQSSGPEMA
Sequence of Cyclin E1 (Q96SW2 whole entry): as the sequence (Q96SW2 whole entry, the tested form may be a part) above
Sequence of Cyclin E1 (Q16531 whole entry partner): as the sequence (Q16531 whole entry partner, the tested form may be a part) above
Procedure, shortened: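 OVCAR3 cells treated with compound for 24 h at 37 °C, lysed, and cyclin E1 measured by MSD sandwich immunoassay (rabbit capture, mouse detection anti-CCNE1). Reference degrader at […] defined 110% response; DC50 and Dmax derived from response.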

| IC50 (Phospho-Rb (Ser807/811)) [nM] | DC50 (GSPT1) [nM] | Dmax (GSPT1) [%] | DC50 (Cyclin E1) [nM] | Dmax (Cyclin E1) [%] | Ratio of GSPT1 DC50/Cyclin E1 DC50 (Cyclin E1) | SMILES | Emax (Phospho-Rb (Ser807/811)) [%] |
| --- | --- | --- | --- | --- | --- | --- | --- |
| 498 | > 14000 | 24 | 67 | 96 | >208 | COc1cccc(Oc2ccc(NC(=O)OCc3ccc4c(c3OC)C(=O)N(C3CCC(=O)NC3=O)C4)cc2)c1 (centres unmarked) [Example 32, [2-(2,6-dioxopiperidin-3-yl)-4-methoxy-3-oxo-2,3-dihydro-1H-isoindol-5-yl]methyl N-[4-(3-methoxyphenoxy)phenyl]carbamate] | 83 |
| 225 | > 14000 | 15 | 447 | 99 | >31 | COc1c(COC(=O)Nc2ccc(Cc3ccc(F)c(F)c3)cc2)ccc2c1C(=O)N(C1CCC(=O)NC1=O)C2 (centres unmarked) [Example 17, [2-(2,6-dioxopiperidin-3-yl)-4-methoxy-3-oxo-2,3-dihydro-1H-isoindol-5-yl]methyl N-{4-[(3,4-difluorophenyl)methyl]phenyl}carbamate] | 114 |
| 185 | > 14000 | 21 | 141 | 108 | >99 | CCOc1c(COC(=O)Nc2ccc(Oc3cccc(F)c3)cc2)ccc2c1C(=O)N(C1CCC(=O)NC1=O)C2 (centres unmarked) [Example 55, [2-(2,6-dioxopiperidin-3-yl)-4-ethoxy-3-oxo-2,3-dihydro-1H-isoindol-5-yl]methyl N-[4-(3-fluorophenoxy)phenyl]carbamate] | 114 |
| 187 | > 14000 | 19 | 221 | 107 | >63 | O=C1CCC(N2Cc3ccc(COC(=O)Nc4ccc(Oc5ccc(F)c(F)c5)cc4)c(OC4COC4)c3C2=O)C(=O)N1 (centres unmarked) [Example 129, [2-(2,6-dioxopiperidin-3-yl)-4-(oxetan-3-yloxy)-3-oxo-2,3-dihydro-1H-isoindol-5-yl]methyl N-[4-(3,4-difluorophenoxy)phenyl]carbamate] | 117 |
| 272 | > 14000 | 39 | 414 | 100 | >34 | COc1c(COC(=O)Nc2ccc(Oc3ccccc3C3CC3)cc2)ccc2c1C(=O)N(C1CCC(=O)NC1=O)C2 (centres unmarked) [Example 87, [2-(2,6-dioxopiperidin-3-yl)-4-methoxy-3-oxo-2,3-dihydro-1H-isoindol-5-yl]methyl N-[4-(2-cyclopropylphenoxy)phenyl]carbamate] | 98 |
| 161 | > 14000 | 0 | 299 | 108 | >47 | CCN(C)C(=O)COc1c(COC(=O)Nc2ccc(Oc3ccc(F)c(F)c3)cc2)ccc2c1C(=O)N(C1CCC(=O)NC1=O)C2 (centres unmarked) [Example 177, [2-(2,6-dioxopiperidin-3-yl)-4-{[ethyl(methyl)carbamoyl]methoxy}-3-oxo-2,3-dihydro-1H-isoindol-5-yl]methyl N-[4-(3,4-difluorophenoxy)phenyl]carbamate] | 126 |
| 109 | > 14000 | 42 | 273 | 111 | >51 | COc1c(COC(=O)Nc2ccc(Oc3cc(F)c(F)cc3F)cc2)ccc2c1C(=O)N(C1CCC(=O)NC1=O)C2 (centres unmarked) [Example 44, [2-(2,6-dioxopiperidin-3-yl)-4-methoxy-3-oxo-2,3-dihydro-1H-isoindol-5-yl]methyl N-[4-(2,4,5-trifluorophenoxy)phenyl]carbamate] | 111 |
| 442 | > 14000 | 31 | 672 | 103 | >21 | COc1c(COC(=O)Nc2ccc(Oc3ccc(F)cc3F)cc2F)ccc2c1C(=O)N(C1CCC(=O)NC1=O)C2 (centres unmarked) [Example 30, [2-(2,6-dioxopiperidin-3-yl)-4-methoxy-3-oxo-2,3-dihydro-1H-isoindol-5-yl]methyl N-[4-(2,4-difluorophenoxy)-2-fluorophenyl]carbamate] | 107 |
| 37 | > 14000 | 9 | 57 | 111 | >247 | O=C1CCC(N2Cc3ccc(COC(=O)Nc4ccc(Oc5ccc(F)cc5F)cc4)c(O[C@@H]4CCCOC4)c3C2=O)C(=O)N1 (stereo partly drawn) [Example 145, [2-(2,6-dioxopiperidin-3-yl)-4-[(3R)-oxan-3-yloxy]-3-oxo-2,3-dihydro-1H-isoindol-5-yl]methyl N-[4-(2,4-difluorophenoxy)phenyl]carbamate] | 145 |
| 356 | > 14000 | 33 | 61 | 112 | >228 | COc1c(COC(=O)Nc2ccc(Oc3cccc(C)c3)cc2)ccc2c1C(=O)N(C1CCC(=O)NC1=O)C2 (centres unmarked) [Example 11, [2-(2,6-dioxopiperidin-3-yl)-4-methoxy-3-oxo-2,3-dihydro-1H-isoindol-5-yl]methyl N-[4-(3-methylphenoxy)phenyl]carbamate] | 98 |
| 272 | > 14000 | 27 | 312 | 102 | >45 | COc1cc(Oc2cc(F)c(F)cc2C)ccc1NC(=O)OCc1ccc2c(c1OC)C(=O)N(C1CCC(=O)NC1=O)C2 (centres unmarked) [Example 73, [2-(2,6-dioxopiperidin-3-yl)-4-methoxy-3-oxo-2,3-dihydro-1H-isoindol-5-yl]methyl N-[4-(4,5-difluoro-2-methylphenoxy)-2-methoxyphenyl]carbamate] | 118 |
| 163 | > 14000 | 32 | 284 | 113 | >49 | COc1c(COC(=O)Nc2ccc(Oc3cc(F)c(F)c(F)c3)cc2)ccc2c1C(=O)N(C1CCC(=O)NC1=O)C2 (centres unmarked) [Example 77, [2-(2,6-dioxopiperidin-3-yl)-4-methoxy-3-oxo-2,3-dihydro-1H-isoindol-5-yl]methyl N-[4-(3,4,5-trifluorophenoxy)phenyl]carbamate] | 94 |
| 14 | > 14000 | 0 | 13 | 107 | >1,066 | O=C1CCC(N2Cc3ccc(COC(=O)Nc4ccc(Oc5ccccc5)cc4)c(OC4CCOCC4)c3C2=O)C(=O)N1 (centres unmarked) [Example 134, [2-(2,6-dioxopiperidin-3-yl)-4-(oxan-4-yloxy)-3-oxo-2,3-dihydro-1H-isoindol-5-yl]methyl N-(4-phenoxyphenyl)carbamate] | 144 |
| 73 | > 14000 | 43 | 87 | 110 | >160 | COc1c(COC(=O)Nc2ccc(Oc3cccc(Cl)c3Cl)cc2F)ccc2c1C(=O)N(C1CCC(=O)NC1=O)C2 (centres unmarked) [Example 116, [2-(2,6-dioxopiperidin-3-yl)-4-methoxy-3-oxo-2,3-dihydro-1H-isoindol-5-yl]methyl N-[4-(2,3-dichlorophenoxy)-2-fluorophenyl]carbamate] | 107 |
| 221 | > 14000 | 22 | 118 | 109 | >118 | COc1c(COC(=O)Nc2ccc(Oc3ccc(F)c(C)c3)cc2F)ccc2c1C(=O)N(C1CCC(=O)NC1=O)C2 (centres unmarked) [Example 99, [2-(2,6-dioxopiperidin-3-yl)-4-methoxy-3-oxo-2,3-dihydro-1H-isoindol-5-yl]methyl N-[2-fluoro-4-(4-fluoro-3-methylphenoxy)phenyl]carbamate] | 114 |
| 121 | > 14000 | 35 | 59 | 108 | >236 | COc1c(COC(=O)Nc2ccc(Oc3ccc(F)cc3Cl)cc2)ccc2c1C(=O)N(C1CCC(=O)NC1=O)C2 (centres unmarked) [Example 102, [2-(2,6-dioxopiperidin-3-yl)-4-methoxy-3-oxo-2,3-dihydro-1H-isoindol-5-yl]methyl N-[4-(2-chloro-4-fluorophenoxy)phenyl]carbamate] | 120 |
| 55 | > 14000 | 19 | 111 | 103 | >126 | O=C1CCC(N2Cc3ccc(COC(=O)Nc4ccc(Oc5ccccc5Cl)cc4)c(Oc4ccccc4)c3C2=O)C(=O)N1 (centres unmarked) [Example 66, [2-(2,6-dioxopiperidin-3-yl)-3-oxo-4-phenoxy-2,3-dihydro-1H-isoindol-5-yl]methyl N-[4-(2-chlorophenoxy)phenyl]carbamate] | 148 |
